We go through five compounds from ChEMBL document CHEMBL1122129, “Estrogenic and antiestrogenic activity of monophenolic analogues of tamoxifen, (Z)-2-[p-(1,2-diphenyl-1-butenyl)phenoxy]-N, N-dimethylethylamine” (J Med Chem, 1982).

Assay [1] deals with T1, Estrogen receptor (Rattus norvegicus) (UniProt P06211+Q62986).
Description: Anti-uterotrophic effect in rats at 50 ug/animal/day in the presence of 0.5 ug estradiol benzoate
Assay [2] deals with T1, Estrogen receptor (Rattus norvegicus). The following applies: Uterus.
Description: Uterotrophic effect in rats at 50 ug/animal/day hydroxytamoxifen

`C[C@]12CC[C@@H]3c4ccc(OC(=O)c5ccccc5)cc4CC[C@H]3[C@@H]1CC[C@@H]2O`: the Antiuterotropic effect in assay [1] stood at 21.6. Also, the Uterotropic effect in assay [2] is 24.

`CC/C(=C(/c1ccccc1)c1ccc(OCCN(C)C)cc1)c1ccc(O)cc1` showed an Antiuterotropic effect in assay [1] of 15.7. This compound also showed a Uterotropic effect in assay [2] of 11.

On to `CC/C(=C(/c1ccccc1)c1ccc(OCCN(C)C)cc1)c1cccc(O)c1`, for which, in assay [1], the Antiuterotropic effect stood at 19.7. Further, in assay [2], the Uterotropic effect was found to be 5.7.

With `CC/C(=C(/c1ccc(OCCN(C)C)cc1)c1cccc(O)c1)c1ccccc1`, the Antiuterotropic effect in assay [1] came to 16.7. Further, the Uterotropic effect in assay [2] is 6.7.

For `CC/C(=C(\c1ccccc1)c1ccc(OCCN(C)C)cc1)c1cccc(O)c1`, the Antiuterotropic effect in assay [1] amounted to 15.7. The compound further displayed a Uterotropic effect in assay [2] of 10.1.
